Assay: xn = mol fraction of the nth substance listed
Settings: 298.15 K, Liquid

CCCCCl [1-chlorobutane] + CC(=O)N(C)C
mass density [kg/m3]
Settings	x2 = 0.0967	x2 = 0.2105	x2 = 0.2984	x2 = 0.4019	x2 = 0.499	x2 = 0.5947	x2 = 0.6992	x2 = 0.7997	x2 = 0.9015
100 kPa	885.6	891.8	896.7	902.5	908.1	913.3	919.2	924.7	930.4
2000 kPa	887.5	893.6	898.4	904.1	909.6	914.8	920.6	925.9	931.6
4000 kPa	889.5	895.5	900.1	905.8	911.2	916.2	922.1	927.3	932.9
6000 kPa	891.4	897.2	901.9	907.45	912.7	917.8	923.4	928.7	934.1
8000 kPa	893.3	899.1	903.6	909	914.2	919.2	924.8	930	935.5
10000 kPa	895.3	900.9	905.3	910.9	915.8	920.7	926.2	931.3	936.7
11900 kPa	–	–	–	912.3	–	–	–	–	–
12000 kPa	897.1	902.6	907	–	917.3	922.1	927.6	932.6	937.9
13900 kPa	–	–	–	913.9	–	–	–	–	–
14000 kPa	898.9	904.4	908.6	–	918.8	923.5	929	933.8	939
15900 kPa	–	–	–	–	–	–	–	935.1	–
16000 kPa	900.6	906.1	910.2	915.4	920.2	924.8	930.3	–	940.3
17900 kPa	902.3	907.6	–	–	–	–	–	936.2	–
18000 kPa	–	–	911.7	916.9	921.6	926.2	931.5	–	941.5
20000 kPa	904.2	909.3	–	–	–	–	932.9	937.7	942.6
20100 kPa	–	–	913.5	918.5	923.1	927.6	–	–	–

CCCCCl [1-chlorobutane] + CN(C)C=O
mass density [kg/m3]
Settings	x2 = 0.0998	x2 = 0.1981	x2 = 0.2988	x2 = 0.4019	x2 = 0.501	x2 = 0.6087	x2 = 0.7008	x2 = 0.8163	x2 = 0.9007
100 kPa	885.5	890.7	896.3	902.3	908.6	915.5	921.8	930.2	936.6
2000 kPa	887.4	892.5	898	903.9	910.1	917	923.1	931.5	937.8
4000 kPa	889.3	894.4	899.8	905.7	911.7	918.5	924.6	932.8	939.1
6000 kPa	891.2	896.3	901.6	907.3	913.3	920	926	934.2	940.3
7900 kPa	–	–	–	–	–	–	927.5	–	–
8000 kPa	893.1	898.1	903.3	908.9	914.9	921.5	–	935.4	941.5
10000 kPa	895.1	900	905.1	910.7	916.6	923	928.8	936.8	942.9
11900 kPa	–	–	–	–	918	–	–	–	–
12000 kPa	896.9	901.6	906.8	912.2	–	924.4	930.3	938.1	944.1
14000 kPa	898.6	903.4	908.4	913.8	919.5	925.9	931.7	939.3	945.3
16000 kPa	900.4	905.1	910.1	915.3	921	927.21	933	940.6	946.4
18000 kPa	902.1	906.8	911.7	916.7	922.4	–	934.3	941.8	947.5
18100 kPa	–	–	–	–	–	928.6	–	–	–
20000 kPa	903.8	908.7	913.1	918.3	924	930.2	935.6	943.3	949.1

CCCCCCCl [1-chlorohexane] + CC(=O)N(C)C
mass density [kg/m3]
Settings	x2 = 0.0952	x2 = 0.2003	x2 = 0.3011	x2 = 0.4036	x2 = 0.503	x2 = 0.6051	x2 = 0.6992	x2 = 0.8013	x2 = 0.8996
100 kPa	877.1	881.6	886.4	891.9	897.5	903.8	910.4	918.4	926.8
2000 kPa	878.7	883.2	888	893.41	899	905.2	911.7	919.7	928.1
4000 kPa	880.4	884.8	889.5	895	900.4	906.7	913.1	921	929.3
6000 kPa	882	886.4	891.2	896.5	901.9	908.1	914.5	922.3	930.5
8000 kPa	883.6	888	892.7	898	903.4	909.5	915.9	923.6	931.7
10000 kPa	885.3	889.6	894.3	899.6	904.9	910.9	917.3	925	933.1
11900 kPa	–	–	–	–	–	–	918.6	–	–
12000 kPa	886.8	891.2	895.8	901	906.3	912.3	–	926.3	934.3
14000 kPa	888.4	892.78	897.2	902.4	907.6	913.6	919.9	927.5	935.5
16000 kPa	889.9	894.1	898.7	903.8	909	914.9	921.2	928.7	936.6
18000 kPa	891.3	895.6	900.1	905.2	910.3	916.2	922.6	929.9	937.7
20000 kPa	892.9	897.2	901.8	–	911.8	917.7	924	931.3	–
20100 kPa	–	–	–	906.8	–	–	–	–	939

CCCCCCCl [1-chlorohexane] + CN(C)C=O
mass density [kg/m3]
Settings	x2 = 0.097	x2 = 0.2019	x2 = 0.2707	x2 = 0.4007	x2 = 0.5017	x2 = 0.6155	x2 = 0.6988	x2 = 0.7993	x2 = 0.9018
100 kPa	876.9	881.2	884.4	891.3	897.4	905.4	912.7	921.8	932.6
2000 kPa	878.5	882.8	885.9	892.8	898.8	906.9	914	923.1	933.8
4000 kPa	880.2	884.4	887.5	894.3	900.3	908.4	915.5	924.4	935.1
6000 kPa	881.8	886	889.1	895.8	901.8	909.8	916.8	925.7	936.4
8000 kPa	883.4	887.6	890.7	897.3	903.3	911.2	918.2	927	937.6
10000 kPa	885.1	889.3	892.3	898.8	904.8	912.7	919.6	928.4	938.9
11900 kPa	–	–	–	–	–	914	–	–	–
12000 kPa	886.7	890.8	893.8	900	906.3	–	920.9	929.7	940.1
13900 kPa	–	–	–	–	–	–	–	930.9	–
14000 kPa	888.2	892.3	895.2	901.8	907.6	915.4	922.3	–	941.3
16000 kPa	889.7	893.8	896.7	903.2	909.1	916.8	923	932.1	942.5
17900 kPa	–	–	–	–	–	–	–	933.3	–
18000 kPa	891.2	895.3	898.1	904.6	910.4	918.1	924.9	–	943.6
20000 kPa	892.8	896.6	899.6	906	911.8	919.5	926.2	934.6	944.9
